Reference: patent US12404304B1, “Telomerase reverse transcriptase (TERT) expression enhancing compounds and methods for using the same” (Sierra Sciences, LLC, priority 2007, dated 2025)

Legend:
[1] = tested on: human TERT expression (hTERT mRNA); test: Quantitative real-time RT-PCR of hTERT mRNA expression (Ct, transcripts) in compound-treated cells; assay type: cell-based; settings: quantitative real-time RT-PCR
From the text: Telomerase is a ribonucleoprotein complex composed of the catalytic protein subunit (human telomerase reverse transcriptase or hTERT) and the RNA template. hTERT expression level can be measured by PCR.
Briefly, amplification of the target sequence is monitored per PCR cycle by detecting the fluorescence signal emitted by an internal probe that is degraded by the 5′ nuclease activity of the Taq polymerase. The emission signal accumulates in each sample, and the Ct required to reach a given fluorescence threshold is determined (Ct stands for Cycle Threshold and is a measure of the number of PCR cycles that are required to amplify a target—thus, a lower Ct score means that there is more abundant hTERT mRNA). Thus, the Ct value of a sample inversely correlates to the quantity of the starting cDNA which correlates to the number of mRNA transcripts. Using the cDNA of known quantity, a standard curve can be generated and used to determine the starting amount of mRNA transcripts based on the […] of each sample.
Quantitative real-time PCR can be done on cDNA from test compound-treated and nontreated cells by use of a ABI Prism 7900 Sequence Detection System (PE Applied Biosystems, Foster City, CA) following the Assays-on-Demand protocol (PE Applied Biosystems, Foster City, CA). Quantitative data can be analyzed using the Sequence Detection System software version 2.1 (PE Applied Biosystems).
The following compounds were tested in assays designed to identify compounds that enhance human TERT expression.

viable cells in culture = test: Cell viability assay (CellTiter-Glo Luminescent Cell Viability Assay, ATP quantitation, percent of vehicle control)

CCCC(=O)NC(c1ccc(SC)cc1)c1ccc2cccnc2c1O (centres unmarked) [compound 1010]
Average Number of hTERT Transcripts [1]: 35.70 | Average Cell Viability after 24 Hours (% DMSO) (viable cells in culture): 86.63 % DMSO

COc1cc(NS(=O)(=O)c2cc(Cl)ccc2Cl)c2ncccc2c1 [compound 1026]
Average Number of hTERT Transcripts [1]: 11.55 | Average Cell Viability after 24 Hours (% DMSO) (viable cells in culture): 52.03 % DMSO

CCCCC(=O)NC(c1ccc(OC)c(OC)c1)c1cc([N+](=O)[O-])c2cccnc2c1O (centres unmarked) [compound 1053]
Average Cell Viability after 24 Hours (% DMSO) (viable cells in culture): 59.77 % DMSO

CCCCC(=O)NC(c1ccc(Cl)cc1)c1cc([N+](=O)[O-])c2cccnc2c1O (centres unmarked) [compound 1054]
Average Cell Viability after 24 Hours (% DMSO) (viable cells in culture): 46.45 % DMSO

CCCCC(=O)NC(c1ccco1)c1cc([N+](=O)[O-])c2cccnc2c1O (centres unmarked) [compound 1055]
Average Cell Viability after 24 Hours (% DMSO) (viable cells in culture): 57.43 % DMSO

CCCC(=O)NC(c1ccc(C(C)C)cc1)c1cc([N+](=O)[O-])c2cccnc2c1O (centres unmarked) [compound 1056]
Average Cell Viability after 24 Hours (% DMSO) (viable cells in culture): 65.75 % DMSO

CC(=O)NC(c1ccc(C(C)C)cc1)c1cc(Cl)c2cccnc2c1O (centres unmarked) [compound 1057]
Average Cell Viability after 24 Hours (% DMSO) (viable cells in culture): 50.02 % DMSO

CC(=O)NC(c1cccs1)c1ccc2cccnc2c1O (centres unmarked) [compound 1058]
Average Cell Viability after 24 Hours (% DMSO) (viable cells in culture): 69.11 % DMSO

CC(=O)NC(c1ccc(N(C)C)cc1)c1cc(Cl)c2cccnc2c1O (centres unmarked) [compound 1059]
Average Number of hTERT Transcripts [1]: 26.79 | Average Cell Viability after 24 Hours (% DMSO) (viable cells in culture): 53.52 % DMSO

CCN(CC)c1ccc(C(NC(=O)C(C)C)c2ccc3cccnc3c2O)cc1 (centres unmarked) [compound 1060]
Average Cell Viability after 24 Hours (% DMSO) (viable cells in culture): 63.44 % DMSO

CCCCC(=O)NC(c1ccc(OC)cc1)c1cc(Cl)c2cccnc2c1O (centres unmarked) [compound 1061]
Average Cell Viability after 24 Hours (% DMSO) (viable cells in culture): 62.27 % DMSO

CC(C)C(=O)NC(c1ccc(C(C)C)cc1)c1cc(Cl)c2cccnc2c1O (centres unmarked) [compound 1062]
Average Cell Viability after 24 Hours (% DMSO) (viable cells in culture): 60.77 % DMSO

CCCCC(=O)NC(c1cccs1)c1cc([N+](=O)[O-])c2cccnc2c1O (centres unmarked) [compound 1063]
Average Cell Viability after 24 Hours (% DMSO) (viable cells in culture): 85.12 % DMSO

CC(C)C(=O)NC(c1ccc2c(c1)OCO2)c1cc([N+](=O)[O-])c2cccnc2c1O (centres unmarked) [compound 1064]
Average Cell Viability after 24 Hours (% DMSO) (viable cells in culture): 67.37 % DMSO

O=C(CCc1ccccc1)NC(c1ccc2c(c1)OCO2)c1ccc2cccnc2c1O (centres unmarked) [compound 1065]
Average Cell Viability after 24 Hours (% DMSO) (viable cells in culture): 61.72 % DMSO

CCCC(=O)NC(c1ccc(N(C)C)cc1)c1cc(Cl)c2cccnc2c1O (centres unmarked) [compound 1066]
Average Cell Viability after 24 Hours (% DMSO) (viable cells in culture): 72.46 % DMSO

CCCCC(=O)NC(c1cccs1)c1cc(Cl)c2cccnc2c1O (centres unmarked) [compound 1067]
Average Cell Viability after 24 Hours (% DMSO) (viable cells in culture): 49.62 % DMSO

O=C(NC(c1ccc2c(c1)OCO2)c1cc([N+](=O)[O-])c2cccnc2c1O)C1CCCCC1 (centres unmarked) [compound 1068]
Average Cell Viability after 24 Hours (% DMSO) (viable cells in culture): 61.20 % DMSO

CCCCC(=O)NC(/C=C/c1ccccc1)c1cc([N+](=O)[O-])c2cccnc2c1O (centres unmarked) [compound 1069]
Average Cell Viability after 24 Hours (% DMSO) (viable cells in culture): 80.34 % DMSO

CCCC(=O)NC(c1ccc(N(CC)CC)cc1)c1cc(Cl)c2cccnc2c1O (centres unmarked) [compound 1070]
Average Cell Viability after 24 Hours (% DMSO) (viable cells in culture): 69.71 % DMSO

CC(C)C(=O)NC(c1ccc(C(C)C)cc1)c1cc([N+](=O)[O-])c2cccnc2c1O (centres unmarked) [compound 1071]
Average Cell Viability after 24 Hours (% DMSO) (viable cells in culture): 81.62 % DMSO

COc1ccc(C(NC(=O)C2CCCCC2)c2cc([N+](=O)[O-])c3cccnc3c2O)cc1OC (centres unmarked) [compound 1072]
Average Cell Viability after 24 Hours (% DMSO) (viable cells in culture): 78.35 % DMSO

COc1ccc(C(NC(=O)C(C)C)c2cc([N+](=O)[O-])c3cccnc3c2O)cc1 (centres unmarked) [compound 1073]
Average Cell Viability after 24 Hours (% DMSO) (viable cells in culture): 80.10 % DMSO

CCC(=O)NC(c1ccccc1Cl)c1cc([N+](=O)[O-])c2cccnc2c1O (centres unmarked) [compound 1074]
Average Cell Viability after 24 Hours (% DMSO) (viable cells in culture): 75.55 % DMSO

COc1ccc(C(NC(=O)CC(C)C)c2ccc3cccnc3c2O)cc1OC (centres unmarked) [compound 1076]
Average Number of hTERT Transcripts [1]: 61.45 | Average Cell Viability after 24 Hours (% DMSO) (viable cells in culture): 62.85 % DMSO

CCCC(=O)NC(c1ccco1)c1cc(Cl)c2cccnc2c1O (centres unmarked) [compound 1077]
Average Cell Viability after 24 Hours (% DMSO) (viable cells in culture): 38.99 % DMSO

Cc1ccc2ccc(C(Nc3ccccn3)c3cccc([N+](=O)[O-])c3)c(O)c2n1 (centres unmarked) [compound 1078]
Average Cell Viability after 24 Hours (% DMSO) (viable cells in culture): 67.66 % DMSO

Cc1cn(-c2ccc3c(Cl)cc(Cl)c(O)c3n2)nc1C [compound 1079]
Average Number of hTERT Transcripts [1]: 98.36 | Average Cell Viability after 24 Hours (% DMSO) (viable cells in culture): 71.22 % DMSO

Cc1ccnc(NC(c2cccc(Cl)c2)c2ccc3ccc(C)nc3c2O)c1 (centres unmarked) [compound 1080]
Average Cell Viability after 24 Hours (% DMSO) (viable cells in culture): 72.44 % DMSO

Oc1c(C(Nc2ccccn2)c2ccc(Cl)c(Cl)c2)ccc2cccnc12 (centres unmarked) [compound 1082]
Average Cell Viability after 24 Hours (% DMSO) (viable cells in culture): 56.92 % DMSO

Cc1ccnc(NC(c2cccc(Br)c2)c2ccc3ccc(C)nc3c2O)c1 (centres unmarked) [compound 1083]
Average Cell Viability after 24 Hours (% DMSO) (viable cells in culture): 74.39 % DMSO

O=C(NC(c1ccccc1)c1ccc2cccnc2c1O)c1ccccc1 (centres unmarked) [compound 1086]
Average Cell Viability after 24 Hours (% DMSO) (viable cells in culture): 56.53 % DMSO

CC(C)C(=O)NC(c1ccco1)c1ccc2cccnc2c1O (centres unmarked) [compound 1087]
Average Cell Viability after 24 Hours (% DMSO) (viable cells in culture): 72.33 % DMSO

Cc1ccc(C(NC(=O)C(C)C)c2ccc3cccnc3c2O)cc1 (centres unmarked) [compound 1088]
Average Cell Viability after 24 Hours (% DMSO) (viable cells in culture): 55.87 % DMSO

CCN1CCN(Cc2ccc3cccnc3c2O)CC1 [compound 1089]
Average Cell Viability after 24 Hours (% DMSO) (viable cells in culture): 89.98 % DMSO

Cc1ccc(S(=O)(=O)Nc2ccc(O)c3ncccc23)cc1 [compound 1091]
Average Cell Viability after 24 Hours (% DMSO) (viable cells in culture): 94.30 % DMSO

Cc1ccc(S(=O)(=O)Nc2cc(Cl)c(O)c3ncccc23)cc1 [compound 1092]
Average Cell Viability after 24 Hours (% DMSO) (viable cells in culture): 66.43 % DMSO

Cc1ccc(S(=O)(=O)Nc2cc(S(=O)(=O)c3ccc(C)cc3)c(O)c3ncccc23)cc1 [compound 1093]
Average Cell Viability after 24 Hours (% DMSO) (viable cells in culture): 66.50 % DMSO

Oc1c(C(Nc2ccccc2Cl)c2ccccn2)ccc2cccnc12 (centres unmarked) [compound 1095]
Average Cell Viability after 24 Hours (% DMSO) (viable cells in culture): 56.93 % DMSO

CCN(CC)Cc1ccc(O)c2ncccc12 [compound 1096]
Average Cell Viability after 24 Hours (% DMSO) (viable cells in culture): 67.13 % DMSO

COCc1cc(CN2CCCC2)c(O)c2ncccc12 [compound 1097]
Average Cell Viability after 24 Hours (% DMSO) (viable cells in culture): 78.08 % DMSO

COCc1cc(CN2CCCCC2)c(O)c2ncccc12 [compound 1098]
Average Cell Viability after 24 Hours (% DMSO) (viable cells in culture): 68.58 % DMSO

CCOCc1cc(CN2CCCCC2)c(O)c2ncccc12 [compound 1099]
Average Cell Viability after 24 Hours (% DMSO) (viable cells in culture): 64.22 % DMSO

CCCOCc1cc(CN2CCCCC2)c(O)c2ncccc12 [compound 1100]
Average Cell Viability after 24 Hours (% DMSO) (viable cells in culture): 56.10 % DMSO

CCCOCc1cc(CN2CCN(C)CC2)c(O)c2ncccc12 [compound 1101]
Average Cell Viability after 24 Hours (% DMSO) (viable cells in culture): 76.69 % DMSO

CC(C)OCc1cc(CN2CCCCC2)c(O)c2ncccc12 [compound 1102]
Average Cell Viability after 24 Hours (% DMSO) (viable cells in culture): 68.56 % DMSO

CC1CCN(Cc2cc(COC(C)C)c3cccnc3c2O)CC1 [compound 1103]
Average Cell Viability after 24 Hours (% DMSO) (viable cells in culture): 58.35 % DMSO

Cc1cc(NC(c2ccccn2)c2ccc3cccnc3c2O)no1 (centres unmarked) [compound 1104]
Average Cell Viability after 24 Hours (% DMSO) (viable cells in culture): 71.14 % DMSO

Cc1ccc2c(I)cc(I)c(O)c2n1 [compound 1105]
Average Cell Viability after 24 Hours (% DMSO) (viable cells in culture): 58.63 % DMSO

COc1cc([C@@H]2c3cc4c(cc3C(OC3O[C@@H]5COC(C)O[C@H]5[C@H](O)[C@H]3O)C3COC(=O)[C@@H]32)OCO4)cc(OC)c1O (some centres unmarked) [compound 1224]
Average Number of hTERT Transcripts [1]: 89.52

O=S1(=O)CCC(N2COc3c(cc(Cl)c4cccnc34)C2)C1 (centres unmarked) [compound 1462]
Average Cell Viability after 24 Hours (% DMSO) (viable cells in culture): 62.26 % DMSO

Cc1ccc2ccc(C(Nc3ccccn3)c3ccccc3Br)c(O)c2n1 (centres unmarked) [compound 1477]
Average Cell Viability after 24 Hours (% DMSO) (viable cells in culture): 76.49 % DMSO

O=C(CCc1ccccc1)NC(c1ccc(Cl)cc1)c1ccc2cccnc2c1O (centres unmarked) [compound 1478]
Average Cell Viability after 24 Hours (% DMSO) (viable cells in culture): 72.44 % DMSO

CC(C)C(=O)NC(c1ccccc1)c1cc([N+](=O)[O-])c2cccnc2c1O (centres unmarked) [compound 1479]
Average Cell Viability after 24 Hours (% DMSO) (viable cells in culture): 68.20 % DMSO

Cc1ccc2ccc(C(Nc3ccccn3)c3ccccc3Cl)c(O)c2n1 (centres unmarked) [compound 1480]
Average Cell Viability after 24 Hours (% DMSO) (viable cells in culture): 79.43 % DMSO

COc1ccc(C(NC(=O)C(C)C)c2cc([N+](=O)[O-])c3cccnc3c2O)cc1OC (centres unmarked) [compound 1481]
Average Cell Viability after 24 Hours (% DMSO) (viable cells in culture): 78.30 % DMSO

Oc1ccc(CN2CCN(c3cccc(Cl)c3)CC2)c2cccnc12 [compound 1482]
Average Cell Viability after 24 Hours (% DMSO) (viable cells in culture): 80.49 % DMSO
